Assay results: patent US7754718B2 (priority 2004, dated 2010)
Counter-ions that a name gives are not always drawn. Like-named read-outs stand apart in the source and are kept apart here.

What was measured:
HSV-2 = test: In vitro antiviral assay for HSV-2; type: cell-based, Herpes Simplex Virus 2
Summary of the method: (§1)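 Performed according to previously reported procedures for each virus; no further conditions are given for the HSV-2, CMV, HIV or EBV assays.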

HIV = test: In vitro antiviral assay for HIV; type: cell-based, human immunodeficiency virus; conditions: (T) after a value means toxic
Summary of the method: as §1

HCV [1] = test: Anti-HCV activity in Huh-Luc/neo cell line, luciferase activity after 3-day treatment; type: cell-based, Hepatitis C virus; conditions: Huh-Luc/neo cells
MT-2 cells = test: Cell cytotoxicity assay on MT-2 cells; type: cell-based; conditions: read-out: Cytotoxity (ID50, μM) MT-2
Summary of the method: (§2)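 MT-2 and CEM cytotoxicity determined per previously reported procedures. HepG2 cells seeded at 10^4 cells/ml in MEME + 10% FBS, compound added on day 2 for 3 further days at 37° C. Viable layer stained with methylene blue, solubilized in 1% sarcosyl, A595 read.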

HSV-1 = test: In vitro antiviral assay for HSV-1; type: cell-based, Herpes Simplex Virus 1
Summary of the method: as §1

HBV = test: In vitro antiviral assay for HBV (Table 1); type: cell-based, Hepatitis B virus; conditions: read-out: Antiviral Activities (EC50, μM) HBV
CEM cells = test: Cell cytotoxicity assay on CEM cells; type: cell-based; conditions: read-out: Cytotoxity (ID50, μM) CEM
Summary of the method: as §2

EBV = test: In vitro antiviral assay for EBV; type: cell-based, Epstein-Barr Virus
Summary of the method: as §1

CMV = test: In vitro antiviral assay for CMV; type: cell-based, cytomegalovirus
Experimental: The antiviral assays for HBV, (Doong et al., 1991, Proc. Natl. Acad. Sci. U.S.A. 88:8495-8499) HSV-1, (Bastow et al., 1983, Antimicrob. Agents Chemother. 23: 914-917) HSV-2, (Bastow et al., 1983, Antimicrob. Agents Chemother. 23:914-917) EBV, (Yao et al., 1993, Antimicrob. Agents Chemother. 37:1420-1425), CMV (Andreoni et al., 2002, J. Med. Virol. 67:33-40) and HIV (Mellors et al., 1992, Mol. Pharmacol. 41: 446-451) were performed according to the previously reported procedures. Anti-HCV activities were tested in Huh-Luc/neo cell line. Cells were seeded into 48-well plates and grown until confluent. Different concentrations of drugs were added into media (DMEM, 10% dFBS) and incubated for 3 days. At the end of 3-day treatment, medium were removed and 50 μl of Passive lysis buffer (Promega) were added. Cell lysate was shaken at room temperature for 15 min. 30 μl/well of cell lysate was transferred to another 96-well plate, 100 μl/well of luciferase activity assay substrate was added into plate and read by a luminometer (Amersham) immediately.

[2] = Cell cytotoxicity assay on MT-2 cells; type: cell-based; conditions: human, read-out: Cytotoxity (ID50, μM) MT-2
Summary of the method: as §2

[3] = Cell cytotoxicity assay on CEM cells; type: cell-based; conditions: human, read-out: Cytotoxity (ID50, μM) CEM
Summary of the method: as §2

HCV [4] = conditions: ribavirin alone; cited from earlier work
HCV [5] = conditions: patients chronically infected with HCV, IFN as sole treatment; cited from earlier work
[6] = in vitro, read-out: Antiviral Activities (EC50, μM) HSV-2
[7] = in vitro, read-out: Antiviral Activities (EC50, μM) HIV
[8] = in vitro, read-out: Antiviral Activities (EC50, μM) HSV-1
[9] = in vitro, read-out: Antiviral Activities (EC50, μM) EBV

Molecule: O=C1c2cc3ccc4c(c3c(-c3ccc5c(c3)OCO5)c2C(=O)N1CCCOCc1ccccc1)OCO4 [Compound 10, 10-Benzo[1,3]dioxol-5-yl-8-(3-benzyloxy-propyl)-1,3-dioxa-8-aza-dicycloplenta[a,g]naphthalene-7,9-dione]
- EC50 (HSV-2; [6]): > 50 µM
- EC50 (HIV; [7]): > 100 µM
- HCV percent of inhibition (HCV [1]; at 10 μM, 3 days): 62%
- IC50 (MT-2 cells): > 100 µM
- EC50 (HSV-1; [8]): > 50 µM
- EC50 (HBV; in vitro): > 10 µM
- IC50 (CEM cells): > 100 µM
- EC50 (EBV; [9]): > 5 µM

Molecule: O=C1NCc2cc3ccc4c(c3c(-c3ccc5c(c3)OCO5)c21)OCO4 [Compound 16, 10-Benzo[1,3]dioxol-5-yl-7,8-dihydro-13-dioxa-8-aza-dicyclopenta[a,g]naphthalen-9-one]
- EC50 (HSV-2; [6]): > 50 µM
- EC50 (HIV; [7]): > 100 µM
- EC50 (HCV [1]; 3 days, given as a bound only, read-out: Antiviral Activities (EC50, μM) HCV): > 10 µM
- IC50 (MT-2 cells): > 100 µM
- EC50 (HSV-1; [8]): > 50 µM
- EC50 (HBV; in vitro): > 10 µM
- IC50 (CEM cells): 90 µM
- EC50 (EBV; [9]): > 20 µM

Molecule: O=c1[nH][nH]c(=O)c2c(-c3ccc4c(c3)OCO4)c3c4c(cc(Br)c3cc12)OCO4 [Compound 42, 11-Benzo[1,3]dioxol-5-yl-5-bromo-8,9-dihydro-[1,3]dioxa-8,9-diaza-cyclopenta[a]anthracene-7,10-dione]
- EC50 (HSV-2; [6]): > 20 µM
- HCV percent of inhibition (HCV [1]; at 3 μM, 3 days): 45%
- IC50 (MT-2 cells): > 100 µM
- EC50 (HSV-1; [8]): 16 µM
- EC50 (HBV; in vitro): > 20 µM
- IC50 (CEM cells): 28 µM
- EC50 (EBV; [9]): > 20 µM

Molecule: O=C(O)c1cc2c(Br)cc3c(c2c(-c2ccc4c(c2)OCO4)c1CO)OCO3 [Compound 45, 9-Benzo[1,3]dioxol-5-yl-5-bromo-8-hydroxymethyl-naphtho[1,2-d][1.3]dioxole-7-carboxylic acid monosodium salt]
- EC50 (HSV-2; [6]): > 50 µM
- EC50 (HIV; [7]): > 50 µM
- IC50 (MT-2 cells): 50 µM
- EC50 (HSV-1; [8]): > 50 µM
- EC50 (HBV; in vitro): > 10 µM
- IC50 (CEM cells): 46.5 µM
- EC50 (CMV; in vitro, read-out: Antiviral Activities (EC50, μM) CMV): > 20 µM
- EC50 (EBV; [9]): > 20 µM

Molecule: O=C([O-])c1cc2c(I)cc3c(c2c(-c2ccc4c(c2)OCO4)c1CO)OCO3.[Na+] [Compound 46, 9-Benzo[1,3]dioxol-5-yl-8-hydroxymethyl-5-iodo-naphtho[1,2-d][1,3]dioxole-7-carboxylic acid monosodium salt]
- EC50 (HSV-2; Human alphaherpesvirus 2, read-out: Antiviral Activities (EC50, μM) HSV-2): > 50 µM
- EC50 (HIV; Human immunodeficiency virus 1, read-out: Antiviral Activities (EC50, μM) HIV, in vitro): > 80 µM
- inhibition at 10 µM (HCV [1]; Hepatitis C virus, 72 h, at 10 μM, 3 days, read-out: HCV percent of inhibition): 36%
- melting point: 212 °C (dec.)
- IC50 [2]: 80 µM
- EC50 (HSV-1; Human alphaherpesvirus 1, read-out: Antiviral Activities (EC50, μM) HSV-1): > 50 µM
- EC50 (HBV; Hepatitis B virus): > 18 µM
- IC50 [3]: > 100 µM
- EC50 (CMV; Human betaherpesvirus 5, read-out: Antiviral Activities (EC50, μM) CMV): > 20 µM
- EC50 (EBV; human gammaherpesvirus 4, read-out: Antiviral Activities (EC50, μM) EBV): > 20 µM

Molecule: NC(=O)c1ncn([C@@H]2O[C@H](CO)[C@@H](O)[C@H]2O)n1 [Ribavirin, 1-beta-D-ribofuranosyl-1-1,2,4-triazole-3-carboxamide]
- patients in whom serum amino transferase levels are reduced to normal (HCV [4]): 40%

Molecule: Interferon
- patients with a sustained response (HCV [5]): 8%-9%
- HCV column: concentration at which the percent of inhibition was seen (HCV [1]; Interferon control): 10 u/ml
- HCV percent of inhibition (HCV [1]; at 10 u/ml): (90) %
